From ChEMBL document CHEMBL3817781, “Identifying Interactions that Determine Fragment Binding at Protein Hotspots” (J Med Chem, 2016)

Biological target: T1, Pantothenate synthetase (Mycobacterium tuberculosis, UniProt P9WIL5)
T1 sequence (P9WIL5 whole entry): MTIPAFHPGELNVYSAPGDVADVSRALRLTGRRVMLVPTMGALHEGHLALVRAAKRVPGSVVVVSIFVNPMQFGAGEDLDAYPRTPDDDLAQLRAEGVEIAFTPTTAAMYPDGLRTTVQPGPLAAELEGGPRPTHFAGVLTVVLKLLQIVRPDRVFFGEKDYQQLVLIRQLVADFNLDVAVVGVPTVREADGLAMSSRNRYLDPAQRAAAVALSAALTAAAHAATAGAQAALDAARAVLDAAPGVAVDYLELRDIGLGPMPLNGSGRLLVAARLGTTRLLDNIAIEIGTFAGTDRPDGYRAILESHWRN
Assay: Inhibition of Mycobacterium tuberculosis pantothenate synthetase expressed in Escherichia coli

Q: How did the IC50 turn out when COc1ccc2c(c1)cc(C(=O)NS(=O)(=O)Cc1ccc(C(F)(F)F)cc1)n2CC(=O)O was run?
A: 250 nM
